Laboratory results as given in the NIST ThermoML archive (doi:10.1021/acs.jced.5b00246).
Where “and” joins values, the source holds several entries; their conditions need not be identical. Equal values may be shown once.

Conditions: 101.33 kPa, Liquid, NMR spin-echo technique

CC(C)CCCC(C)CCCC(C)CCCCC(C)CCCC(C)CCCC(C)C (stereo not given) [2,6,10,15,19,23-hexamethyltetracosane]
Conditions | self diffusion coefficient [m2/s]
270.4 K | 5.32e-12
273 K | 6.72e-12
283.3 K | 1.34e-11
283.6 K | 1.32e-11
288.28 K | 1.81e-11
293.13 K | 2.19e-11
293.19 K | 2.26e-11
298 K | 2.79e-11
298.19 K | 2.88e-11
298.44 K | 2.91e-11
303 K | 3.57e-11
303.18 K | 3.69e-11
312.99 K | 5.7e-11
314.3 K | 5.7e-11
322.69 K | 8.15e-11
322.72 K | 8.24e-11
323.16 K | 8.12e-11
325.7 K | 8.83e-11
333.03 K | 1.17e-10
333.49 K | 1.14e-10
334.8 K | 1.18e-10
342.81 K | 1.5e-10
344.9 K | 1.6e-10
348.2 K | 1.74e-10
352.82 K | 1.96e-10
353.15 K | 1.98e-10
362.6 K | 2.44e-10
362.82 K | 2.5e-10
362.88 K | 2.6e-10

C[S+](C)[O-] [dimethyl sulfoxide]
Conditions | self diffusion coefficient [m2/s]
293.09 K | 6.55e-10
298.26 K | 7.46e-10
298.29 K | 7.45e-10
308.1 K | 9.1e-10
318.03 K | 1.12e-09
328.1 K | 1.34e-09
338.12 K | 1.59e-09
348.17 K | 1.84e-09
363.71 K | 2.29e-09

C1CCCCC1 [cyclohexane]
Conditions | self diffusion coefficient [m2/s]
283.47 K | 1.07e-09
283.53 K | 1.09e-09
288.31 K | 1.19e-09
288.32 K | 1.2e-09
298.12 K | 1.46e-09
298.15 K | 1.47e-09
308.02 K | 1.73e-09
308.03 K | 1.76e-09
308.16 K | 1.71e-09
308.17 K | 1.72e-09
317.68 K | 2.03e-09
317.73 K | 2.08e-09
318.22 K | 2.05e-09
318.25 K | 2.05e-09
323.04 K | 2.23e-09
328.13 K | 2.47e-09
328.15 K | 2.47e-09
333.02 K | 2.6e-09
333.05 K | 2.65e-09
342.79 K | 2.97e-09
348.16 K | 3.25e-09

CCCCC(CC)COC(=O)c1ccccc1C(=O)OCC(CC)CCCC (stereo not given) [bis(2-ethylhexyl) 1,2-benzenedicarboxylate]
Conditions | self diffusion coefficient [m2/s]
268 K | 1.31e-12
273 K | 2.05e-12
283 K | 4.57e-12
298.1 K | 1.24e-11
303.18 K | 1.71e-11
303.2 K | 1.86e-11
312.89 K | 2.91e-11
313.2 K | 3.05e-11
322.7 K | 4.5e-11
322.84 K | 4.53e-11
322.88 K | 4.53e-11
323.03 K | 4.57e-11
323.05 K | 4.57e-11
323.1 K | 4.73e-11
332.7 K | 6.93e-11
333.16 K | 6.74e-11
333.2 K | 6.78e-11
342.5 K | 9.48e-11
343.65 K | 9.74e-11
343.7 K | 9.79e-11
352.86 K | 1.3e-10
352.88 K | 1.31e-10
362.72 K | 1.69e-10
362.75 K | 1.72e-10

Cc1ccccc1 [toluene]
Conditions | self diffusion coefficient
239.09 K | 7.12e-10 m2/s
240.94 K | 7.53e-10 m2/s
248.57 K | 8.98e-10 m2/s
251.71 K | 9.77e-10 m2/s
253.27 K | 1.01e-09 m2/s
253.28 K | 1.01e-09 m2/s
258.16 K | 1.13e-09 m2/s
258.23 K | 1.13e-09 m2/s
263.51 K | 1.24e-09 m2/s
268.32 K | 1.38e-09 m2/s
273.43 K | 1.5e-09 m2/s
273.54 K | 1.52e-09 m2/s
278.07 K | 1.67e-09 m2/s
278.15 K | 1.67e-09 m2/s
288.05 K | 1.98e-09 m2/s
293.08 K | 2.13e-09 m2/s
298 K | 2.3e-09 m2/s
298.18 K | 2.27e-09 m2/s
298.2 K | 2.32e-09 m2/s
298.21 K | 2.28e-09 m2/s and 2.3e-09 m2/s
308.07 K | 2.71e-09 m2/s
322.69 K | 3.15e-09 m2/s
323.16 K | 3.32e-09 m2/s
323.18 K | 3.3e-09 m2/s
332.93 K | 3.56e-09 m2/s
333.16 K | 3.56e-09 m2/s
343.45 K | 4.09e-09 m2/s

C1COCCO1 [1,4-dioxane]
Conditions | self diffusion coefficient [m2/s]
288.31 K | 9.1e-10
288.33 K | 8.97e-10
293.11 K | 1.03e-09
298.13 K | 1.1e-09
298.17 K | 1.12e-09
298.18 K | 1.09e-09
298.2 K | 1.13e-09
303.12 K | 1.24e-09
307.92 K | 1.3e-09
308.06 K | 1.32e-09
317.85 K | 1.55e-09
318.24 K | 1.57e-09
327.94 K | 1.79e-09
327.95 K | 1.81e-09
338.09 K | 2.15e-09
338.12 K | 2.09e-09
338.13 K | 2.11e-09
347.87 K | 2.37e-09
347.97 K | 2.43e-09
358.25 K | 2.66e-09
358.49 K | 2.66e-09

CCCCCO [pentan-1-ol]
Conditions | self diffusion coefficient
253.13 K | 5.27e-11 m2/s
253.19 K | 5.32e-11 m2/s
258.42 K | 6.61e-11 m2/s
258.47 K | 6.61e-11 m2/s
263.25 K | 8.06e-11 m2/s
263.28 K | 8.11e-11 m2/s
268.65 K | 1.01e-10 m2/s
268.66 K | 1.02e-10 m2/s
278.4 K | 1.51e-10 m2/s
278.43 K | 1.52e-10 m2/s
288.31 K | 2.17e-10 m2/s
288.33 K | 2.17e-10 m2/s
298.16 K | 3.01e-10 m2/s
298.17 K | 3e-10 m2/s
298.19 K | 2.99e-10 m2/s
298.21 K | 3.02e-10 m2/s
298.27 K | 3.02e-10 m2/s
308.09 K | 4.13e-10 m2/s
308.11 K | 4.14e-10 m2/s
318.08 K | 5.54e-10 m2/s
318.09 K | 5.56e-10 m2/s
323.1 K | 6.39e-10 m2/s
323.15 K | 6.43e-10 m2/s
327.86 K | 7.3e-10 m2/s and 7.36e-10 m2/s
337.71 K | 9.56e-10 m2/s
337.74 K | 9.49e-10 m2/s
347.21 K | 1.22e-09 m2/s
347.25 K | 1.22e-09 m2/s
352.35 K | 1.4e-09 m2/s
352.36 K | 1.4e-09 m2/s
352.55 K | 1.41e-09 m2/s
364.52 K | 1.84e-09 m2/s
364.59 K | 1.83e-09 m2/s
364.73 K | 1.83e-09 m2/s

CCCCCCCCCCCC [dodecane]
Conditions | self diffusion coefficient [m2/s]
264.14 K | 3.95e-10
266.5 K | 4.2e-10
268.03 K | 4.37e-10
278.2 K | 5.59e-10
278.52 K | 5.63e-10
278.56 K | 5.64e-10
278.72 K | 5.66e-10
288.09 K | 6.97e-10
288.49 K | 7.03e-10
288.52 K | 7.03e-10
298.15 K | 8.56e-10
298.2 K | 8.57e-10
298.21 K | 8.57e-10
308.15 K | 1.03e-09
308.16 K | 1.04e-09
318.15 K | 1.22e-09
318.16 K | 1.23e-09
323.17 K | 1.33e-09
328.17 K | 1.43e-09
328.22 K | 1.44e-09
328.25 K | 1.47e-09
333.14 K | 1.54e-09
337.93 K | 1.67e-09
337.97 K | 1.66e-09
337.99 K | 1.67e-09
348.08 K | 1.92e-09
352.75 K | 2.07e-09
352.77 K | 2.04e-09
364.53 K | 2.44e-09
364.54 K | 2.41e-09
